From ChEMBL document CHEMBL1201862, “PubChem BioAssay data set” (2004)
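Step 1: Grow cells in 96-well plates. Step 2: Expose to compound for 48 hours at 5 concentrations. Step 3: Interpolate endpoints linearly; if unreached, use highest concentration. At the GI50, growth is halved.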 Active and inactive are the calls of the source. No stated cut-off is given here; in the data, active = GI50 up to about 1.1 µM and inactive = higher.

Legend:
Assay in all cases: NCI-60 cell line screen, 48 h
[1] = system: HT-29
[2] = system: UACC-257
[3] = system: NCI-H522
[4] = system: HCT-15
[5] = system: UACC-62
[6] = system: MDA-MB-231
[7] = system: TK-10
[8] = system: SF-268
[9] = system: ACHN
[10] = system: CAKI-1
[11] = system: COLO 205
[12] = system: SF-539
[13] = system: OVCAR-4
[14] = system: HL-60
[15] = system: SN12C
[16] = system: MDA-N
[17] = system: NCI-H23
[18] = system: K562
[19] = system: MOLT-4
[20] = system: OVCAR-5

| Compound | GI50 [1] | GI50 [2] | GI50 [3] | GI50 [4] [µM] | GI50 [5] | GI50 [6] | GI50 [7] | GI50 [8] | GI50 [9] | GI50 [10] | GI50 [11] | GI50 [12] | GI50 [13] | GI50 [14] | GI50 [15] | GI50 [16] | GI50 [17] | GI50 [18] | GI50 [19] | GI50 [20] |
| --- | --- | --- | --- | --- | --- | --- | --- | --- | --- | --- | --- | --- | --- | --- | --- | --- | --- | --- | --- | --- |
| N#Cc1ccc(-n2c3ccccc3c3ccc4c(c32)C(=O)C=CC4=O)cc1 | 1.66 µM (inactive) | 4.67 µM (inactive) | 0.11 µM (active) | 4.49 | 6.25 µM (inactive) | 2.51 µM (inactive) | 3.4 µM (inactive) | 2.62 µM (inactive) | 1.56 µM (inactive) | 1.38 µM (inactive) | 2.79 µM (inactive) | 3.94 µM (inactive) | 3.78 µM (inactive) | 0.578 µM (active) | 3.65 µM (inactive) | 4.99 µM (inactive) | 6.89 µM (inactive) | 1.29 µM (inactive) | 0.348 µM (active) | 17.8 µM (inactive) |
| c1ccc(COCC23CCN(Cc4ccccc4)C(CC(OCc4ccccc4)C2)S3)cc1 (configuration not stated) | 25.8 µM (inactive) | 45.3 µM (inactive) | 29.7 µM (inactive) | 28.6 | 52.4 µM (inactive) | 66.4 µM (inactive) |  | 73.3 µM (inactive) | 78.9 µM (inactive) | 77.1 µM (inactive) | 35.2 µM (inactive) | > 100 µM (inactive) | 53.1 µM (inactive) | 19.5 µM (inactive) | 57.9 µM (inactive) | 50.9 µM (inactive) | 31.4 µM (inactive) | 31 µM (inactive) | 25.6 µM (inactive) | 38.2 µM (inactive) |
| CCOc1ccnc2c(OC)c(C)c3nc4ccccc4nc3c12 | 72.8 µM (inactive) | > 100 µM (inactive) | > 100 µM (inactive) | 12.8 |  | > 100 µM (inactive) | > 100 µM (inactive) | > 100 µM (inactive) | > 100 µM (inactive) | > 100 µM (inactive) | > 100 µM (inactive) | > 100 µM (inactive) | > 100 µM (inactive) | > 100 µM (inactive) | > 100 µM (inactive) | > 100 µM (inactive) | > 100 µM (inactive) | 98.6 µM (inactive) | 82.6 µM (inactive) | > 100 µM (inactive) |
| CCCCc1ccc(Nc2ncc3ncn(COCCO)c3n2)cc1 | 21.8 µM (inactive) | 27.9 µM (inactive) | 34.1 µM (inactive) | 34.9 | 25.6 µM (inactive) | 18.9 µM (inactive) | 37.8 µM (inactive) | 40.9 µM (inactive) | 26.1 µM (inactive) | 49.1 µM (inactive) | 36.1 µM (inactive) | 29.3 µM (inactive) | 41.1 µM (inactive) | 23.8 µM (inactive) | 46.2 µM (inactive) | 32 µM (inactive) | 27.7 µM (inactive) | 14 µM (inactive) | 21.6 µM (inactive) | 32.7 µM (inactive) |
| COc1ccc2nc3cc(Cl)ccc3c(NCCNC(=O)Cn3c(=O)n(C)c(=O)c4c3nc3c(c(=O)n(C)c(=O)n3C)[n+]4[O-])c2c1 | 24.2 µM (inactive) | 32.7 µM (inactive) | 25.4 µM (inactive) | > 100 | > 38.3 µM (inactive) | 50.7 µM (inactive) | 29 µM (inactive) | 17.2 µM (inactive) | 36.8 µM (inactive) | > 80 µM (inactive) | > 67.1 µM (inactive) | 23.7 µM (inactive) | > 64.7 µM (inactive) | > 100 µM (inactive) | 36.7 µM (inactive) | 46.3 µM (inactive) | 21.2 µM (inactive) | 46.8 µM (inactive) | 22.9 µM (inactive) | > 72.8 µM (inactive) |
| CC1(C)CC(=O)/C(=C/C2CCNC2=S)C(=O)N1 (configuration not stated) | > 100 µM (inactive) | > 100 µM (inactive) | > 100 µM (inactive) | > 100 | > 100 µM (inactive) | > 100 µM (inactive) | > 100 µM (inactive) | > 100 µM (inactive) | > 100 µM (inactive) | > 100 µM (inactive) | > 100 µM (inactive) | > 100 µM (inactive) | > 100 µM (inactive) | > 100 µM (inactive) | 82.4 µM (inactive) | > 100 µM (inactive) | > 100 µM (inactive) | > 100 µM (inactive) | > 100 µM (inactive) | > 100 µM (inactive) |
| COC(=O)C(CSSC[C@H](N/C(C)=C/C(C)=O)C(=O)OC)N/C(C)=C/C(C)=O (some centres not stated) | 38.7 µM (inactive) | 32.7 µM (inactive) | 13.9 µM (inactive) |  | 64.4 µM (inactive) | > 100 µM (inactive) | 2.66 µM (inactive) | 42.2 µM (inactive) | < 0.01 µM (active) | 17.3 µM (inactive) | > 100 µM (inactive) | 53 µM (inactive) | > 100 µM (inactive) | 30.2 µM (inactive) | 48.8 µM (inactive) | 52.8 µM (inactive) | > 100 µM (inactive) | 33.3 µM (inactive) | 32.3 µM (inactive) | 18.7 µM (inactive) |
| CC(C)(C)c1cc(OCc2nnc3sc(-c4ccc(Cl)cc4)nn23)c(Cl)cc1OCc1nnc2sc(-c3ccc(Cl)cc3)nn12 | 30.8 µM (inactive) | 11.5 µM (inactive) | 0.564 µM (active) | 3.31 | 4.45 µM (inactive) | 8.15 µM (inactive) | 8.47 µM (inactive) | 6.97 µM (inactive) | 5.4 µM (inactive) | 2.3 µM (inactive) | 7.46 µM (inactive) | 2.57 µM (inactive) | 3.98 µM (inactive) | 2.46 µM (inactive) | 10.2 µM (inactive) | 0.644 µM (active) | 4.94 µM (inactive) | 1.95 µM (inactive) | 4.93 µM (inactive) | 29.7 µM (inactive) |
| CCCCc1ccc(Nc2nc(N)c3[nH]cnc3n2)cc1 | 13.8 µM (inactive) | 26.5 µM (inactive) | 14.7 µM (inactive) | 25 | 17.2 µM (inactive) | 19.8 µM (inactive) | 16.4 µM (inactive) | 14.9 µM (inactive) | 17 µM (inactive) | 15.5 µM (inactive) | 18.3 µM (inactive) | 18.8 µM (inactive) | 24.5 µM (inactive) | 18.7 µM (inactive) | 13.9 µM (inactive) | 16.9 µM (inactive) | 17.1 µM (inactive) | 28.1 µM (inactive) | 0.925 µM (active) | 30.5 µM (inactive) |
| CC(=O)OC1C2CCC3C(C)(O)C4CC(O)C(C)(C)C4(O)C(O)CC13CC2(C)O (configuration not stated) | > 100 µM (inactive) | > 100 µM (inactive) | > 100 µM (inactive) | > 100 | > 100 µM (inactive) | > 100 µM (inactive) | > 100 µM (inactive) | > 100 µM (inactive) | > 100 µM (inactive) | > 100 µM (inactive) | > 100 µM (inactive) | > 100 µM (inactive) | > 100 µM (inactive) | > 100 µM (inactive) | > 100 µM (inactive) | > 100 µM (inactive) | > 100 µM (inactive) | > 100 µM (inactive) |  | > 100 µM (inactive) |
| Nc1n[n+]([O-])c2cnccc2[n+]1[O-] | 39.1 µM (inactive) | 24 µM (inactive) | > 100 µM (inactive) | 32 | 30.1 µM (inactive) | 42.9 µM (inactive) | > 100 µM (inactive) | 93.8 µM (inactive) | 50.9 µM (inactive) | > 100 µM (inactive) | 39.6 µM (inactive) | 47.9 µM (inactive) | 56.2 µM (inactive) | 13.6 µM (inactive) | 44.2 µM (inactive) | 20.7 µM (inactive) | 42.2 µM (inactive) |  | 51.8 µM (inactive) | 52 µM (inactive) |
| CC(C)(C)N(Cc1ccc2c(c1)OCO2)C(=O)/C=C\Sc1ccccc1 | 28.8 µM (inactive) | 71.1 µM (inactive) | 6.98 µM (inactive) | 63.8 | > 100 µM (inactive) | > 100 µM (inactive) | > 100 µM (inactive) |  | > 100 µM (inactive) | > 100 µM (inactive) | 45.1 µM (inactive) | > 100 µM (inactive) | 77.8 µM (inactive) | 37.1 µM (inactive) | > 100 µM (inactive) | 19.5 µM (inactive) | > 100 µM (inactive) | 42.9 µM (inactive) | 21.1 µM (inactive) | > 100 µM (inactive) |
| CCOC(=O)C1(C(=O)OCC)C[C@]23OCCC(=O)[C@H]2[C@H]2C(=O)OC(C)(C)O[C@]23C1 | > 100 µM (inactive) | > 100 µM (inactive) | > 100 µM (inactive) | > 100 | > 100 µM (inactive) | > 100 µM (inactive) | > 100 µM (inactive) | > 100 µM (inactive) | > 100 µM (inactive) | > 100 µM (inactive) | > 100 µM (inactive) | > 100 µM (inactive) | > 100 µM (inactive) | > 100 µM (inactive) | > 100 µM (inactive) | > 100 µM (inactive) | > 100 µM (inactive) |  | > 100 µM (inactive) | > 100 µM (inactive) |
| Cc1nc2c(=S)[nH]ncc2[nH]1 | > 100 µM (inactive) | > 100 µM (inactive) | > 100 µM (inactive) | > 100 | > 100 µM (inactive) | > 100 µM (inactive) | > 100 µM (inactive) |  | > 100 µM (inactive) | > 100 µM (inactive) | > 100 µM (inactive) | > 100 µM (inactive) | > 100 µM (inactive) | > 100 µM (inactive) | > 100 µM (inactive) | > 100 µM (inactive) | > 100 µM (inactive) | > 100 µM (inactive) | > 10 µM (inactive) | > 100 µM (inactive) |
